Experimental findings from US8969554B2, “6-acyl-1,2,4-triazine-3,5-dione derivative and herbicides” (Kumiai Chemical Industry Co., Ltd., priority 2010, dated 2015) are described below.

Common to all, as to format: in vivo
One test deals with Setaria viridis. The experiment in a line: Herbicidal activity by field foliage treatment (Test example 3). Particulars: 1000 g effective component per hectare, day 14 after the treatment. As for the experimental part:
Test example 3 Test for Determining Herbicidal Activity by Field Foliage Treatment A 80 cm^2 wide plastic pot was filled with a field soil and seeds of each of Indian millet and A. retroflexus were sowed and then incubated for 2 weeks in a green house. The wettable powder produced with reference to the Formulation example 1 was diluted water, and applied from the air to entire body of the plant as foliage treatment by using a small sprayer in an amount of 1000 liters per hectare so that the effective component is 1000 g per hectare. After that, the plants were cultivated in a greenhouse, and on day 14 after the treatment, evaluation was made by the criteria described in Table 72 for determining the herbicidal effects.

For a further test, the system named is Echinochloa oryzicola. As to the kind of experiment: Herbicidal activity by paddy field soil treatment (Test Example 1). Set-up: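 index 0 to 10 in 10% steps of herbicidal effect with 10 meaning complete death and 0 below 10%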. Particulars: 1000 g of effective component per hectare, evaluated on day 21 after the treatment, criteria of Table 72. The method, boiled down: (§1)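 Paddy soil in pots sown with seeds, flooded to 3 cm; next day wettable powder diluted in water applied to water surface at 1000 g active ingredient/ha. Greenhouse-grown; herbicidal effect scored on day 21 after treatment against rating criteria.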

In another test the test system is Monochoria vaginalis. The test is described as above. Set-up: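 index 0 to 10 in 10% steps of herbicidal effect with 10 meaning complete death and 0 below 10%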. To be noted: 1000 g of effective component per hectare, evaluated on day 21 after the treatment, criteria of Table 72. The method, boiled down:
as §1

A further test deals with Scirpus juncoides Rocxb. The test is described as above. More on the design: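 index 0 to 10 in 10% steps of herbicidal effect with 10 meaning complete death and 0 below 10%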. To be noted: applied on water surface, 1000 g of effective component per hectare, day 21 after the treatment. In a few lines: as §1
Test [1] concerns Indian millet. As to the kind of experiment: Herbicidal activity by field foliage treatment (Test example 3). More on the design: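 index 0 to 10 in 10% steps of herbicidal effect with 10 meaning complete death and 0 below 10%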. To be noted: 1000 g effective component per hectare, day 14 after the treatment. In a few lines: (§2)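 Field soil in pots; Indian millet and A. retroflexus grown 2 weeks in greenhouse, then sprayed over whole plant with water-diluted wettable powder at 1000 L/ha, giving 1000 g active component/ha. Herbicidal effect scored by set criteria on day 14 after treatment.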

Test [2] concerns A. retroflexus. Described as above. To be noted: 1000 g effective component per hectare, day 14 after the treatment. Set-up: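 index 0 to 10 in 10% steps of herbicidal effect with 10 meaning complete death and 0 below 10%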. In a few lines: as §2
The test system of test [3] is Indian millet. As to the kind of experiment: Herbicidal activity by field soil treatment (Test example 2). Set-up: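 index 0 to 10 in 10% steps of herbicidal effect with 10 meaning complete death and 0 below 10%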. To be noted: 1000 g effective component per hectare, day 21 after the treatment. In a few lines:
(§3)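 Seeds of the four weeds sown in field soil in pots; wettable powder diluted in water sprayed pre-emergence on soil surface at 1000 L/ha, giving 1000 g active per hectare. Greenhouse grown; herbicidal effect scored on day 21 after treatment by set criteria.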

For test [4], the system named is A. retroflexus. The description is as above. More on the design: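 index 0 to 10 in 10% steps of herbicidal effect with 10 meaning complete death and 0 below 10%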. Particulars: 1000 g effective component per hectare, day 21 after the treatment. In a few lines:
as §3

In test [5] the test system is Echinochloa crus-galli. Described as above. Set-up: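 index 0 to 10 in 10% steps of herbicidal effect with 10 meaning complete death and 0 below 10%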. To be noted: 1000 g effective component per hectare, day 21 after the treatment. The method, boiled down:
as §3

For test [6], the system named is Echinochloa crus-galli. As to the kind of experiment: Herbicidal activity by field foliage treatment (Test example 3). To be noted: 1000 g effective component per hectare, day 14 after the treatment. Set-up: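 index 0 to 10 in 10% steps of herbicidal effect with 10 meaning complete death and 0 below 10%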. In a few lines: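 Potted field-soil plants grown 2 weeks in a greenhouse were sprayed over the whole foliage with diluted wettable powder at 1000 L/ha, delivering 1000 g active ingredient per hectare. Herbicidal effect scored by visual criteria 14 days after treatment.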
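For herbicidal effect index, Setaria viridis in this document: index 0 to 10 in 10% steps of herbicidal effect with 10 meaning complete death and 0 below 10%.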

`COc1ccccc1-n1c(=O)c(C(=O)C2=C(O)CCCC2=O)nn(C)c1=O` [I-60]: the “herbicidal effect index, Setaria viridis” value in the test on Setaria viridis is 9. For the same molecule, the “Herbicidal effects index number, Echinochloa oryzicola” value in the test on Echinochloa oryzicola was found to be 10. Besides, in the test with Monochoria vaginalis, the “Herbicidal effects index number, Monochoria vaginalis” value was 10. Also, in the test on Scirpus juncoides Rocxb., the “herbicidal effect index, S. juncoides Rocxb.” value was determined as 10. For the same molecule, the “herbicidal effect index, Abutilon theophrasti” value in the test on Indian millet [1] and in the test on Indian millet [3] was 10 each time. Further, the “herbicidal effect index, Amaranthus retroflexus” value in the test on A. retroflexus [2] and with A. retroflexus [4] was 10 throughout. The “herbicidal effect index, Echinochloa crus-galli” value in the test on Echinochloa crus-galli [5] and in the test with Echinochloa crus-galli [6] was 10 each time.

In the case of `Cn1nc(C(=O)C2=C(O)CCCC2=O)c(=O)n(-c2ccc(Cl)cn2)c1=O` [I-185], the “herbicidal effect index, Setaria viridis” value in the test on Setaria viridis turned out to be 9. In addition, in the test with Echinochloa oryzicola, the “Herbicidal effects index number, Echinochloa oryzicola” value was 8. Further, the “Herbicidal effects index number, Monochoria vaginalis” value in the test on Monochoria vaginalis worked out at 9. The “herbicidal effect index, S. juncoides Rocxb.” value with Scirpus juncoides Rocxb. stood at 9. Moreover, the “herbicidal effect index, Abutilon theophrasti” value with Indian millet [1] is 9; with Indian millet [3], 10. For the same molecule, the “herbicidal effect index, Amaranthus retroflexus” value in the test on A. retroflexus [2] and in the test with A. retroflexus [4] was 10 in each case. The “herbicidal effect index, Echinochloa crus-galli” value in the test on Echinochloa crus-galli [5] came to 9; in the test on Echinochloa crus-galli [6], 10.

With `CON=C(C)Cn1c(=O)c(C(=O)C2=C(O)CCCC2=O)nn(C)c1=O` [I-471], the “herbicidal effect index, Setaria viridis” value with Setaria viridis worked out at 10. Moreover, the “Herbicidal effects index number, Echinochloa oryzicola” value with Echinochloa oryzicola stood at 10. Besides, the “Herbicidal effects index number, Monochoria vaginalis” value in the test with Monochoria vaginalis turned out to be 10. The “herbicidal effect index, S. juncoides Rocxb.” value in the test on Scirpus juncoides Rocxb. amounted to 10. The “herbicidal effect index, Abutilon theophrasti” value in the test with Indian millet [1] and in the test on Indian millet [3] was 10 in each case. The “herbicidal effect index, Amaranthus retroflexus” value in the test on A. retroflexus [2] and with A. retroflexus [4] was 10 throughout. For the same molecule, the “herbicidal effect index, Echinochloa crus-galli” value in the test with Echinochloa crus-galli [5] is reported as 7; with Echinochloa crus-galli [6], 9.

As to `Cn1nc(C(=O)C2=C(O)CCCC2=O)c(=O)n(-c2ccc(C(F)(F)F)cn2)c1=O` [I-187], the “herbicidal effect index, Setaria viridis” value in the test on Setaria viridis came out at 8. Moreover, the “Herbicidal effects index number, Echinochloa oryzicola” value in the test with Echinochloa oryzicola came out at 10. For the same molecule, in the test on Monochoria vaginalis, the “Herbicidal effects index number, Monochoria vaginalis” value is listed as 10. Further, in the test on Scirpus juncoides Rocxb., the “herbicidal effect index, S. juncoides Rocxb.” value came to 10. For the same molecule, the “herbicidal effect index, Abutilon theophrasti” value in the test with Indian millet [1] and in the test with Indian millet [3] was 9 in each case. Moreover, the “herbicidal effect index, Amaranthus retroflexus” value with A. retroflexus [2] and in the test on A. retroflexus [4] was 10 throughout. For the same molecule, the “herbicidal effect index, Echinochloa crus-galli” value is 7 in the test with Echinochloa crus-galli [5] and 8 in the test with Echinochloa crus-galli [6].

`Cc1ccc(-n2c(=O)c(C(=O)C3=C(O)CCCC3=O)nn(C)c2=O)c(C)c1` [I-90]: the “herbicidal effect index, Setaria viridis” value in the test on Setaria viridis is 7. For the same molecule, in the test with Echinochloa oryzicola, the “Herbicidal effects index number, Echinochloa oryzicola” value is 9. Moreover, the “Herbicidal effects index number, Monochoria vaginalis” value with Monochoria vaginalis was determined as 10. Besides, in the test with Scirpus juncoides Rocxb., the “herbicidal effect index, S. juncoides Rocxb.” value was found to be 10. Further, the figures for the “herbicidal effect index, Abutilon theophrasti” value in the test with Indian millet [1] and with Indian millet [3] were 9 and 10, respectively. Moreover, the “herbicidal effect index, Amaranthus retroflexus” value in the test on A. retroflexus [2] and in the test on A. retroflexus [4] was 10 each time. Also, the “herbicidal effect index, Echinochloa crus-galli” value with Echinochloa crus-galli [5] and in the test with Echinochloa crus-galli [6] was 8 each time.

For `COc1c(F)cc(-n2c(=O)c(C(=O)C3=C(O)CCCC3=O)nn(C)c2=O)cc1F` [Compound I-167], the “herbicidal effect index, Setaria viridis” value in the test on Setaria viridis amounted to 8. Moreover, the “herbicidal effect index, Abutilon theophrasti” value in the test on Indian millet [1] and with Indian millet [3] was 10 each time. Moreover, the “herbicidal effect index, Amaranthus retroflexus” value with A. retroflexus [2] and in the test with A. retroflexus [4] was 10 each time. Moreover, the “herbicidal effect index, Echinochloa crus-galli” value with Echinochloa crus-galli [5] amounted to 8; with Echinochloa crus-galli [6], 10.

In the case of `CSCn1c(=O)c(C(=O)C2=C(O)CCCC2=O)nn(C)c1=O` [I-43], in the test on Setaria viridis, the “herbicidal effect index, Setaria viridis” value was 8. In the test with Echinochloa oryzicola, the “Herbicidal effects index number, Echinochloa oryzicola” value came out at 10. Besides, in the test with Monochoria vaginalis, the “Herbicidal effects index number, Monochoria vaginalis” value came out at 10. Moreover, the “herbicidal effect index, S. juncoides Rocxb.” value in the test on Scirpus juncoides Rocxb. is listed as 10. Moreover, in the test on Indian millet [1], the “herbicidal effect index, Abutilon theophrasti” value is on record as 9. The “herbicidal effect index, Amaranthus retroflexus” value with A. retroflexus [2] and with A. retroflexus [4] was 10 throughout. Besides, the “herbicidal effect index, Echinochloa crus-galli” value with Echinochloa crus-galli [5] is listed as 10; in the test on Echinochloa crus-galli [6] it was 8.

Regarding `Cn1nc(C(=O)O)c(=O)n(-c2cc(C(F)(F)F)cc(C(F)(F)F)c2)c1=O` [V-364], the “herbicidal effect index, Setaria viridis” value with Setaria viridis was determined as 9. The “Herbicidal effects index number, Echinochloa oryzicola” value in the test with Echinochloa oryzicola came out at 10. Further, the “Herbicidal effects index number, Monochoria vaginalis” value in the test on Monochoria vaginalis is on record as 10. The “herbicidal effect index, S. juncoides Rocxb.” value in the test with Scirpus juncoides Rocxb. stood at 10. Moreover, the “herbicidal effect index, Abutilon theophrasti” value in the test on Indian millet [1] is 10; in the test with Indian millet [3], 7. For the same molecule, the “herbicidal effect index, Amaranthus retroflexus” value in the test on A. retroflexus [2] is reported as 10; in the test with A. retroflexus [4], 8. Moreover, the “herbicidal effect index, Echinochloa crus-galli” value with Echinochloa crus-galli [6] was 8.

For `Cn1nc(C(=O)C2=C(O)CC(C)(C)CC2=O)c(=O)n(-c2ccccc2)c1=O` [VI-6], the “herbicidal effect index, Setaria viridis” value in the test with Setaria viridis was 10. Besides, the “Herbicidal effects index number, Echinochloa oryzicola” value in the test on Echinochloa oryzicola worked out at 10. The “Herbicidal effects index number, Monochoria vaginalis” value with Monochoria vaginalis turned out to be 10. Further, the “herbicidal effect index, S. juncoides Rocxb.” value in the test on Scirpus juncoides Rocxb. is 10. Also, the figures for the “herbicidal effect index, Abutilon theophrasti” value in the test on Indian millet [1] and in the test on Indian millet [3] were 10 and 9, respectively. For the same molecule, the “herbicidal effect index, Amaranthus retroflexus” value in the test on A. retroflexus [2] and with A. retroflexus [4] was 10 throughout. In addition, the “herbicidal effect index, Echinochloa crus-galli” value in the test on Echinochloa crus-galli [6] is 8.

With `Cn1nc(C(=O)C2=C(O)CCCC2=O)c(=O)n(-c2ccccc2)c1=S` [I-263], in the test with Setaria viridis, the “herbicidal effect index, Setaria viridis” value turned out to be 9. Besides, the “Herbicidal effects index number, Echinochloa oryzicola” value with Echinochloa oryzicola is 10. In addition, in the test with Monochoria vaginalis, the “Herbicidal effects index number, Monochoria vaginalis” value was 10. Besides, the “herbicidal effect index, S. juncoides Rocxb.” value in the test with Scirpus juncoides Rocxb. was found to be 10. Moreover, the figures for the “herbicidal effect index, Abutilon theophrasti” value in the test with Indian millet [1] and in the test with Indian millet [3] were 10 and 8, respectively. Further, the “herbicidal effect index, Amaranthus retroflexus” value with A. retroflexus [2] and in the test on A. retroflexus [4] was 10 each time. The “herbicidal effect index, Echinochloa crus-galli” value in the test with Echinochloa crus-galli [6] is on record as 9.

On to `Cc1cc(Cl)cc(-n2c(=O)c(C(=O)C3=C(O)CCCC3=O)nn(C)c2=O)c1` [I-126], for which the “herbicidal effect index, Setaria viridis” value in the test with Setaria viridis is recorded as 7. Moreover, in the test on Echinochloa oryzicola, the “Herbicidal effects index number, Echinochloa oryzicola” value is recorded as 10. Moreover, the “Herbicidal effects index number, Monochoria vaginalis” value with Monochoria vaginalis is on record as 10. The “herbicidal effect index, S. juncoides Rocxb.” value in the test on Scirpus juncoides Rocxb. is listed as 10. The “herbicidal effect index, Abutilon theophrasti” value is 9 in the test with Indian millet [1] and 10 in the test with Indian millet [3]. The “herbicidal effect index, Amaranthus retroflexus” value with A. retroflexus [2] and with A. retroflexus [4] was 10 in each case. Besides, the “herbicidal effect index, Echinochloa crus-galli” value in the test with Echinochloa crus-galli [6] is reported as 9.
